# Earlier results, collected in PubChem BioAssay AID1259409 (Chemical Carcinogenesis Research Information System (CCRIS), 2018).
# Tested on: rodent chemically induced tumor inhibition, incidence and multiplicity
# Experiment: CCRIS tumor inhibitor studies
# Settings: Dose [Inhibitor]: 0, Route [Inhibitor]: ORAL, Species: RAT, Promoter: NONE USED
structure (smiles),measurement,setting,value
O=c1oc2c(O)c(O)cc3c(=O)oc4c(O)c(O)cc1c4c23,"tumour outcome (control, treated, inhibition, significance)","Carcinogen: DIETHYLNITROSAMINE, 55-18-5, N-METHYLNITROSOUREA, 684-93-5, 1,2-DIMETHYLHYDRAZINE, 540-73-8, N-BUTYL-N-(4-HYDROXYB, Carcinogen: DIETHYLNITROSAMINE, 55-18-5, N-METHYLNITROSOUREA, 684-93-5, 1,2-DIMETHYLHYDRAZINE, 540-73-8, N-BUTYL-N-(4-HYDROXYB, 1% IN DIET FOR 4 WK BEGINNING 1 DAY PRIOR TO CARCINOGEN TREATMENT (STUDY DURATION: 36 WK), Strain/Sex: F344/MALE, Target Tissue: Type of Lesion: SMALL INTESTINE: CARCINOMA, Dose [Carcinogen]: 100 MG/KG DEN ONCE, 20 MG/KG MNU 4 TIMES, 40 MG/KG DMH 4 TIMES, 0.05% BBN IN DRINKING WATER FOR 2 WK, 0.1% DHPN IN D, Dose [Carcinogen]: 100 MG/KG DEN ONCE, 20 MG/KG MNU 4 TIMES, 40 MG/KG DMH 4 TIMES, 0.05% BBN IN DRINKING WATER FOR 2 WK, 0.1% DHPN IN D","5/14 (36%), 0/12 (0%), 100%, p<0.05"
same,"tumour outcome (control, treated, inhibition, significance)","Carcinogen: DIETHYLNITROSAMINE, 55-18-5, N-METHYLNITROSOUREA, 684-93-5, 1,2-DIMETHYLHYDRAZINE, 540-73-8, N-BUTYL-N-(4-HYDROXYB, Carcinogen: DIETHYLNITROSAMINE, 55-18-5, N-METHYLNITROSOUREA, 684-93-5, 1,2-DIMETHYLHYDRAZINE, 540-73-8, N-BUTYL-N-(4-HYDROXYB, 1% IN DIET FOR 4 WK BEGINNING 1 DAY PROIR TO CARCINOGEN TREATMENT (STUDY DURATION: 36 WK), Strain/Sex: F344/MALE, Target Tissue: Type of Lesion: LUNG: ADENOMA, Dose [Carcinogen]: 100 MG/KG DEN ONCE, 20 MG/KG MNU 4 TIMES, 40 MG/KG DMH 4 TIMES, 0.05% BBN IN DRINKING WATER FOR 2 WK, 0.1% DHPN IN D, Dose [Carcinogen]: 100 MG/KG DEN ONCE, 20 MG/KG MNU 4 TIMES, 40 MG/KG DMH 4 TIMES, 0.05% BBN IN DRINKING WATER FOR 2 WK, 0.1% DHPN IN D","6/14 (43%), 1/12 (8%), 81%, not significant"
same,"tumour outcome (control, treated, inhibition, significance)","Carcinogen: DIETHYLNITROSAMINE, 55-18-5, N-METHYLNITROSOUREA, 684-93-5, 1,2-DIMETHYLHYDRAZINE, 540-73-8, N-BUTYL-N-(4-HYDROXYB, Carcinogen: DIETHYLNITROSAMINE, 55-18-5, N-METHYLNITROSOUREA, 684-93-5, 1,2-DIMETHYLHYDRAZINE, 540-73-8, N-BUTYL-N-(4-HYDROXYB, 1% IN DIET FOR 32 WK BEGINNING POST CARCINOGEN TREATMENT (STUDY DURATION: 36 WK), Strain/Sex: F344/MALE, Target Tissue: Type of Lesion: KIDNEY: ADENOMA, Dose [Carcinogen]: 100 MG/KG DEN ONCE, 20 MG/KG MNU 4 TIMES, 40 MG/KG DMH 4 TIMES, 0.05% BBN IN DRINKING WATER FOR 2 WK, 0.1% DHPN IN D, Dose [Carcinogen]: 100 MG/KG DEN ONCE, 20 MG/KG MNU 4 TIMES, 40 MG/KG DMH 4 TIMES, 0.05% BBN IN DRINKING WATER FOR 2 WK, 0.1% DHPN IN D","4/14 (29%), 2/13 (15%), 48%, not significant"
same,"tumour outcome (control, treated, inhibition, significance)","Carcinogen: DIETHYLNITROSAMINE, 55-18-5, N-METHYLNITROSOUREA, 684-93-5, 1,2-DIMETHYLHYDRAZINE, 540-73-8, N-BUTYL-N-(4-HYDROXYB, Carcinogen: DIETHYLNITROSAMINE, 55-18-5, N-METHYLNITROSOUREA, 684-93-5, 1,2-DIMETHYLHYDRAZINE, 540-73-8, N-BUTYL-N-(4-HYDROXYB, 1% IN DIET FOR 32 WK BEGINNING POST CARCINOGEN TREATMENT (STUDY DURATION: 36 WK), Strain/Sex: F344/MALE, Target Tissue: Type of Lesion: KIDNEY: NEPHROBLASTOMA, Dose [Carcinogen]: 100 MG/KG DEN ONCE, 20 MG/KG MNU 4 TIMES, 40 MG/KG DMH 4 TIMES, 0.05% BBN IN DRINKING WATER FOR 2 WK, 0.1% DHPN IN D, Dose [Carcinogen]: 100 MG/KG DEN ONCE, 20 MG/KG MNU 4 TIMES, 40 MG/KG DMH 4 TIMES, 0.05% BBN IN DRINKING WATER FOR 2 WK, 0.1% DHPN IN D","7/14 (50%), 5/13 (38%), 24%, not significant"
same,"tumour outcome (control, treated, inhibition, significance)","Carcinogen: DIETHYLNITROSAMINE, 55-18-5, N-METHYLNITROSOUREA, 684-93-5, 1,2-DIMETHYLHYDRAZINE, 540-73-8, N-BUTYL-N-(4-HYDROXYB, Carcinogen: DIETHYLNITROSAMINE, 55-18-5, N-METHYLNITROSOUREA, 684-93-5, 1,2-DIMETHYLHYDRAZINE, 540-73-8, N-BUTYL-N-(4-HYDROXYB, 1% IN DIET FOR 32 WK BEGINNING POST CARCINOGEN TREATMENT (STUDY DURATION: 36 WK), Strain/Sex: F344/MALE, Target Tissue: Type of Lesion: LARGE INTESTINE: CARCINOMA, Dose [Carcinogen]: 100 MG/KG DEN ONCE, 20 MG/KG MNU 4 TIMES, 40 MG/KG DMH 4 TIMES, 0.05% BBN IN DRINKING WATER FOR 2 WK, 0.1% DHPN IN D, Dose [Carcinogen]: 100 MG/KG DEN ONCE, 20 MG/KG MNU 4 TIMES, 40 MG/KG DMH 4 TIMES, 0.05% BBN IN DRINKING WATER FOR 2 WK, 0.1% DHPN IN D","3/14 (21%), 6/12 (50%), -138%, not significant"
same,"tumour outcome (control, treated, inhibition, significance)","Carcinogen: DIETHYLNITROSAMINE, 55-18-5, N-METHYLNITROSOUREA, 684-93-5, 1,2-DIMETHYLHYDRAZINE, 540-73-8, N-BUTYL-N-(4-HYDROXYB, Carcinogen: DIETHYLNITROSAMINE, 55-18-5, N-METHYLNITROSOUREA, 684-93-5, 1,2-DIMETHYLHYDRAZINE, 540-73-8, N-BUTYL-N-(4-HYDROXYB, 1% IN DIET FOR 32 WK BEGINNING POST CARCINOGEN TREATMENT (STUDY DURATION: 36 WK), Strain/Sex: F344/MALE, Target Tissue: Type of Lesion: SMALL INTESTINE: ADENOMA, Dose [Carcinogen]: 100 MG/KG DEN ONCE, 20 MG/KG MNU 4 TIMES, 40 MG/KG DMH 4 TIMES, 0.05% BBN IN DRINKING WATER FOR 2 WK, 0.1% DHPN IN D, Dose [Carcinogen]: 100 MG/KG DEN ONCE, 20 MG/KG MNU 4 TIMES, 40 MG/KG DMH 4 TIMES, 0.05% BBN IN DRINKING WATER FOR 2 WK, 0.1% DHPN IN D","6/14 (43%), 0/12 (0%), 100%, < p<0.05"
same,"tumour outcome (control, treated, inhibition, significance)","Carcinogen: DIETHYLNITROSAMINE, 55-18-5, N-METHYLNITROSOUREA, 684-93-5, 1,2-DIMETHYLHYDRAZINE, 540-73-8, N-BUTYL-N-(4-HYDROXYB, Carcinogen: DIETHYLNITROSAMINE, 55-18-5, N-METHYLNITROSOUREA, 684-93-5, 1,2-DIMETHYLHYDRAZINE, 540-73-8, N-BUTYL-N-(4-HYDROXYB, 1% IN DIET FOR 32 WK BEGINNING POST CARCINOGEN TREATMENT (STUDY DURATION: 36 WK), Strain/Sex: F344/MALE, Target Tissue: Type of Lesion: SMALL INTESTINE: CARCINOMA, Dose [Carcinogen]: 100 MG/KG DEN ONCE, 20 MG/KG MNU 4 TIMES, 40 MG/KG DMH 4 TIMES, 0.05% BBN IN DRINKING WATER FOR 2 WK, 0.1% DHPN IN D, Dose [Carcinogen]: 100 MG/KG DEN ONCE, 20 MG/KG MNU 4 TIMES, 40 MG/KG DMH 4 TIMES, 0.05% BBN IN DRINKING WATER FOR 2 WK, 0.1% DHPN IN D","5/14 (36%), 1/12 (8%), 78%, not significant"
same,"tumour outcome (control, treated, inhibition, significance)","Carcinogen: DIETHYLNITROSAMINE, 55-18-5, N-METHYLNITROSOUREA, 684-93-5, 1,2-DIMETHYLHYDRAZINE, 540-73-8, N-BUTYL-N-(4-HYDROXYBU, Carcinogen: DIETHYLNITROSAMINE, 55-18-5, N-METHYLNITROSOUREA, 684-93-5, 1,2-DIMETHYLHYDRAZINE, 540-73-8, N-BUTYL-N-(4-HYDROXYBU, 1% IN DIET FOR 32 WK BEGINNING POST CARCINOGEN TREATMENT (STUDY DURATION: 36 WK), Strain/Sex: F344/MALE, Target Tissue: Type of Lesion: LARGE INTESTINE: ADENOMA, Dose [Carcinogen]: 100 MG/KG DEN ONCE, 20 MG/KG MNU 4 TIMES, 40 MG/KG DMH 4 TIMES, 0.05% BBN IN DRINKING WATER FOR 2 WK, 0.1% DHPN IN D, Dose [Carcinogen]: 100 MG/KG DEN ONCE, 20 MG/KG MNU 4 TIMES, 40 MG/KG DMH 4 TIMES, 0.05% BBN IN DRINKING WATER FOR 2 WK, 0.1% DHPN IN D","7/14 (50%), 3/12 (25%), 50%, not significant"
same,"tumour outcome (control, treated, inhibition, significance)","Carcinogen: DIETHYLNITROSAMINE, 55-18-5, N-METHYLNITROSOUREA, 684-93-5, 1,2-DIMETHYLHYDRAZINE, 540-73-8, N-BUTYL-N-(4-HYDROXYBU, Carcinogen: DIETHYLNITROSAMINE, 55-18-5, N-METHYLNITROSOUREA, 684-93-5, 1,2-DIMETHYLHYDRAZINE, 540-73-8, N-BUTYL-N-(4-HYDROXYBU, 1% IN DIET FOR 32 WK BEGINNING POST CARCINOGEN TREATMENT (STUDY DURATION: 36 WK), Strain/Sex: F344/MALE, Target Tissue: Type of Lesion: LUNG: ADENOMA, Dose [Carcinogen]: 100 MG/KG DEN ONCE, 20 MG/KG MNU 4 TIMES, 40 MG/KG DMH 4 TIMES, 0.05% BBN IN DRINKING WATER FOR 2 WK, 0.1% IN DRINKI, Dose [Carcinogen]: 100 MG/KG DEN ONCE, 20 MG/KG MNU 4 TIMES, 40 MG/KG DMH 4 TIMES, 0.05% BBN IN DRINKING WATER FOR 2 WK, 0.1% IN DRINKI","6/14 (43%), 1/13 (8%), 81%, p<0.05"
same,"tumour outcome (control, treated, inhibition, significance)","Carcinogen: N-NITROQUINOLINE-1-OXIDE, 56-57-5, 400 PPM IN DIET FOR 7 WK BEGINNING 1 WK PRIOR TO START OF CARCINOGEN TREATMENT (STUDY DURATION: 32 WK), Strain/Sex: F344\MALE, Target Tissue: Type of Lesion: TONGUE: CARCINOMA, Dose [Carcinogen]: 20 PPM IN DRINKING WATER FOR 5 WK","9/15 (60%), 0/15 (0%), 100%, p=0.00035"
same,outcome,"Carcinogen: N-NITROSOBENZYLMETHYLAMINE, 937-40-6, 0.4 G/KG IN DIET BEGINNING 2 WK PRIOR TO FIRST CARCINOGEN DOSE (STUDY DURATION: 20 WK), Strain/Sex: F-344/MALE, Target Tissue: Type of Lesion: ESOPHAGUS: TUMOR, Dose [Carcinogen]: 0.5, 1.25 MG/KG 1/WK FOR 18 WK","15/15 (100%), 14/15 (93%), 7%, not calculated (low dose carcinogen); 15/15 (100%"
same,"tumour outcome (control, treated, inhibition, significance)","Carcinogen: N-NITROSOBENZYLMETHYLAMINE, 937-40-6, 0.4 G/KG IN DIET BEGINNING 2 WK PRIOR TO FIRST CARCINOGEN DOSE (STUDY DURATION: 27 WK), Strain/Sex: F-344/MALE, Target Tissue: Type of Lesion: ESOPHAGUS: TUMOR, Dose [Carcinogen]: 0.5, 1.25 MG/KG 1/WK FOR 18 WK","15/15 (100%), 15/15 (100%), 0%, not calculated (low dose carcinogen); 15/15 (100"
